Laboratory results reported in patent US20220195487A1, “Method for Measuring Inhibition of Bacteria by Antibacterial Drug, and Bacterial Counting Device and Method Thereof” (BEIJING XINJI JINNUO MEDICAL EQUIPMENT CO.,LTD., priority 2019, published 2022).
In brackets after ≈: the same amount, converted by molar mass.

Key:
Format in all cases: cell-based
[1] = tested on: Staphylococcus aureus (ATCC29213); test: rapid drug susceptibility testing of living cells (live bacteria counting, 2 h); conditions: for Living cell counts: 2 h
Method: 1.2.1 Preparation of bacterial strains: in accordance with the requirements of the CLSI standards, pick each fresh strains within 24 h with a turbidity of 0.5 McFarland units in the column of strain name in Table 7.
1.2.2 Inoculation: take 100 μL of each bacterial suspension with a turbidity of 0.5 McFarland units and dispense to a 48-well plate with pre-configured gradient antibiotics, 500 μL dispensed in each well.
1.2.3 Incubation and detection: incubate for 2 h at 37° C., and perform live bacteria counting. Record the 24 h routine susceptibility results for comparative analysis.

[2] = tested on: Staphylococcus aureus (ATCC29213); test: 2 h susceptibility by resistance bacterial counter; conditions: Example 3, resistance counting, 2 h at 37° C., 60% of the positive count value as threshold
Method: 2.2.1 Preparation of bacterial strains: In accordance with the requirements of the CLSI standards, pick each fresh strains within 24 h with a turbidity of 0.5 McFarland units in the column of strain name in Table 5;
2.2.2 Inoculation: Take 100 μL of each bacterial suspension with a turbidity of 0.5 McFarland units and dispense to a 48-well plate with pre-configured gradient antibiotics, 500 μL dispensed in each well;
2.2.3 Incubation and detection: Incubate for 2 h at 37° C., and measure with a resistance bacterial counter. Adjust the instrument to its best sensitivity and then count bacteria. Record the 24 h routine susceptibility results for comparative analysis.

[3] = tested on: Staphylococcus aureus (ATCC29213); test: 24 h routine (conventional) drug susceptibility testing by visual observation

For `CC[C@H]1OC(=O)[C@H](C)[C@@H](O[C@H]2C[C@@](C)(OC)[C@@H](O)[C@H](C)O2)[C@H](C)[C@@H](O[C@@H]2O[C@H](C)C[C@H](N(C)C)[C@H]2O)[C@](C)(O)C[C@@H](C)C(=O)[C@H](C)[C@@H](O)[C@]1(C)O` [Erythromycin], which Living cell counts ([1]; 0.03 μg/mL) is on record?
Its Living cell counts is 5107 cells/μL.

And the Living cell counts ([1]; 0.06 μg/mL)?
The Living cell counts was 5078 cells/μL.

And the Living cell counts ([1]; 0.12 μg/mL)?
The Living cell counts was 3980 cells/μL.

And the Living cell counts ([1]; 0.25 μg/mL)?
The Living cell counts was 889 cells/μL.

What about the Living cell counts ([1]; 0.5 μg/mL) of the same compound?
Its Living cell counts is 609 cells/μL.

What about the Living cell counts ([1]; 1 μg/mL) of the same compound?
The Living cell counts was 598 cells/μL.

And the Living cell counts ([1]; 2 μg/mL)?
The Living cell counts was 498 cells/μL.

What about the Living cell counts ([1]; 4 μg/mL) of the same compound?
The Living cell counts was 460 cells/μL.

What about the Living cell counts ([1]; 8 μg/mL) of the same compound?
The Living cell counts was 446 cells/μL.

What about the Living cell counts ([1]; 16 μg/mL) of the same compound?
The Living cell counts was 457 cells/μL.

What about the MIC, rapid drug susceptibility testing of living cells ([1]; Example 4, live bacteria counting, 2 h at 37° C.) of the same compound?
Its MIC, rapid drug susceptibility testing of living cells is 0.25 µg/mL.

What about the “2 hMIC” value [2] of the same compound?
The value was 0.5.

What about the “24 hMIC” value ([3]; Example 3, 24 h routine susceptibility) of the same compound?
The value was 0.25.

And the MIC, conventional drug susceptibility testing ([3]; Example 4, 24 h routine susceptibility)?
Its MIC, conventional drug susceptibility testing is 0.25 µg/mL (≈ 0.341 µM).
